The source of these data is ChEMBL document CHEMBL1649379, “Synthesis of a novel ester of hydroxytyrosol and α-lipoic acid exhibiting an antiproliferative effect on human colon cancer HT-29 cells” (2011).

What all share (format): functional
Experiment [1] concerns HT-29. The experiment can be described thus: Growth inhibition of human HT-29 cells at 300 uM after 24 hrs by BrdU-ELISA assay. The following applies: HT-29, 24 h, read-out: GI. In general terms: An ELISA detects its analyte on a solid surface through an enzyme-linked reagent.
The subject of experiment [2] is HT-29. The experiment can be described thus: Induction of cell cycle arrest in human HT-29 cells assessed as accumulation at G0/G1 phase at 100 uM after 24 hrs by flow cytometry (reference value: 61.4+/-1.1%). Background: In flow cytometry, cells or beads pass a laser one at a time.
The test system of experiment [3] is HT-29. The experiment can be described thus: Induction of cell cycle arrest in human HT-29 cells assessed as accumulation at S phase at 150 uM after 24 hrs by flow cytometry (reference value: 21+/-0.9%).
For experiment [4], the system named is HT-29. The experiment can be described thus: Growth inhibition of human HT-29 cells at 100 uM after 48 hrs by BrdU-ELISA assay. As to conditions: HT-29, 48 h, read-out: GI.
The subject of experiment [5] is HT-29. The experiment can be described thus: Induction of cell cycle arrest in human HT-29 cells assessed as accumulation at S phase at 100 uM after 24 hrs by flow cytometry (reference value: 21+/-0.9%).
In experiment [6] the test system is HT-29. The experiment can be described thus: Induction of cell cycle arrest in human HT-29 cells assessed as accumulation at G0/G1 phase at 300 uM after 24 hrs by flow cytometry (reference value: 61.4+/-1.1%).
Experiment [7] deals with HT-29. The experiment can be described thus: Induction of cell cycle arrest in human HT-29 cells assessed as accumulation at G2/M phase at 300 uM after 24 hrs by flow cytometry (reference value: 17.6+/-1%).
The test system of experiment [8] is HT-29. The experiment can be described thus: Growth inhibition of human HT-29 cells at 300 uM after 48 hrs by BrdU-ELISA assay. As to conditions: HT-29, 48 h, read-out: GI.
For experiment [9], the system named is HT-29. As to the kind of experiment: Growth inhibition of human HT-29 cells at 100 uM after 24 hrs by BrdU-ELISA assay. As to conditions: HT-29, 24 h, read-out: GI.
In experiment [10] the test system is HT-29. The experiment can be described thus: Induction of cell cycle arrest in human HT-29 cells assessed as accumulation at G0/G1 phase at 150 uM after 24 hrs by flow cytometry (reference value: 61.4+/-1.1%).
The test system of experiment [11] is HT-29. As to the kind of experiment: Induction of cell cycle arrest in human HT-29 cells assessed as accumulation at G2/M phase at 150 uM after 24 hrs by flow cytometry (reference value: 17.6+/-1%).
Experiment [12] concerns HT-29. The experiment can be described thus: Induction of cell cycle arrest in human HT-29 cells assessed as accumulation at S phase at 300 uM after 24 hrs by flow cytometry (reference value: 21+/-0.9%).
Experiment [13] concerns HT-29. As to the kind of experiment: Growth inhibition of human HT-29 cells at 150 uM after 24 hrs by BrdU-ELISA assay. The following applies: HT-29, 24 h, read-out: GI.
Experiment [14] deals with HT-29. As to the kind of experiment: Induction of cell cycle arrest in human HT-29 cells assessed as accumulation at G2/M phase at 100 uM after 24 hrs by flow cytometry (reference value: 17.6+/-1%).
Experiment [15] relates to HT-29. As to the kind of experiment: Growth inhibition of human HT-29 cells at 150 uM after 48 hrs by BrdU-ELISA assay. The following applies: HT-29, 48 h, read-out: GI.

On to `O=C(O)CCCCC1CCSS1` (stereo not drawn) [LIPOIC ACID, ALPHA], for which the inhibition of growth at 300 µM in the experiment with HT-29 [1] is 24%; in the experiment with HT-29 [8] it was 19.5%. Further, the Activity in the experiment with HT-29 [2] is 43.5%; in the experiment on HT-29 [3] it was 20.1%; with HT-29 [5], 19.2%; in the experiment with HT-29 [6], 37.5%; with HT-29 [7], 40.3%; with HT-29 [10] it was 45.6%. In addition, the Activity with HT-29 [11] was determined as 32.1%; with HT-29 [12], 19.3%; in the experiment with HT-29 [14], 36.9%. Besides, the results for the inhibition of growth at 100 µM in the experiment on HT-29 [4] and in the experiment with HT-29 [9] were 6.5% and 17.8%, respectively. The figures for the inhibition of growth at 150 µM in the experiment on HT-29 [13] and in the experiment on HT-29 [15] were 25.5% and 18.4%, respectively.
On to `O=C(CCCCC1CCSS1)OCCc1ccc(O)c(O)c1` (stereo not given), for which the results for the inhibition of growth at 300 µM in the experiment with HT-29 [1] and in the experiment on HT-29 [8] were 83.9% and 83.6%, respectively. In addition, the Activity with HT-29 [2] came to 31.3%; in the experiment with HT-29 [3], 18.1%; in the experiment on HT-29 [5], 17.7%; in the experiment with HT-29 [6], 28.2%; in the experiment on HT-29 [7], 56.8%; with HT-29 [10], 29.3%. The Activity in the experiment with HT-29 [11] turned out to be 50.5%; in the experiment with HT-29 [12], 14%; in the experiment on HT-29 [14] it was 49.7%. For the same compound, the inhibition of growth at 100 µM turned out to be 45.6% with HT-29 [4] and 33.9% with HT-29 [9]. Moreover, the results for the inhibition of growth at 150 µM in the experiment on HT-29 [13] and with HT-29 [15] were 69.6% and 70.6%, respectively.
For the compound `OCCc1ccc(O)c(O)c1` [HYDROXYTYROSOL], the inhibition of growth at 300 µM in the experiment on HT-29 [1] is 64.2%; in the experiment with HT-29 [8], 53.2%. Besides, the Activity was 40.5% in the experiment with HT-29 [2]; 20.3% with HT-29 [3]; 22.5% in the experiment with HT-29 [5]; 34.4% in the experiment with HT-29 [6]; 43.5% with HT-29 [7]; 40.3% in the experiment on HT-29 [10]. Also, the Activity worked out at 36.7% with HT-29 [11], 20.1% in the experiment with HT-29 [12] and 35% in the experiment with HT-29 [14]. For the same compound, the results for the inhibition of growth at 100 µM in the experiment on HT-29 [4] and with HT-29 [9] were 17.3% and 20.7%, respectively. Further, the values for the inhibition of growth at 150 µM with HT-29 [13] and in the experiment on HT-29 [15] were 37.5% and 29.3%, respectively.
